The assay concerns the target TNF-α (Homo sapiens, UniProt P01375). The assay is described as follows: TNF-α Induced HEK Blue Cellular Assay. The class given is cell-based. The note with it: HEK Blue TNFα reporter cells, TNF-α 100 pg/ml, 24 hrs at 37° C., secreted alkaline phosphatase (QUANTI-Blue, 620 nm). In a few lines: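 HEK Blue TNFα reporter cells (10,000/well, DMEM + 10% FBS) treated with compound ([…] to 0.5 nM final) and stimulated with 100 pg/ml TNF-α for 24 h at 37 °C. Secreted alkaline phosphatase read with QUANTI-Blue at 620 nm; IC50 by 4-parameter logistic fit after background correction to stimulated/unstimulated DMSO controls.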

TNF-α, sequence (P01375 77-233 limits assumed): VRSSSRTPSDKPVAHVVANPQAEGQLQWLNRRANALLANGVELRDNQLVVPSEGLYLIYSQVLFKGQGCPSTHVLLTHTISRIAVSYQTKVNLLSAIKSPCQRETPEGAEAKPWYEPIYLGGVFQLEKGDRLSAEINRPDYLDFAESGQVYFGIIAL

`Cc1nc2cc(F)c(-c3ccc(P(C)(C)=O)nc3)nc2c(N[C@H](C)c2cc(F)cc(C#N)c2)c1Cl` [Example 99, 3-[(1R)-1-({3-chloro-6-[6-(dimethylphosphoryl)pyridin-3-yl]-7-fluoro-2-methyl-1,5-naphthyridin-4-yl}amino)ethyl]-5-fluorobenzonitrile]: the 50% inhibitory concentration (IC50) is no more than 1 µM.
The figure for `CC[C@@H](Nc1c(Cl)c(C)nc2cc(F)c(-c3ccc(P(C)(C)=O)nc3)cc12)c1ncccc1F` [Example 102, 3-chloro-6-[6-(dimethylphosphoryl)pyridin-3-yl]-7-fluoro-N-[(1R)-1-(3-fluoropyridin-2-yl)propyl]-2-methylquinolin-4-amine] is no more than 1 µM.
Then `Cc1nc2cc(F)c(-c3ccc(P4(=O)CCOCC4)nc3)cc2c(N[C@H](C)c2cccc(F)c2F)c1Cl` [Example 103, 4-[5-(3-chloro-4-{[(1R)-1-(2,3-difluorophenyl)ethyl]amino}-7-fluoro-2-methylquinolin-6-yl)pyridin-2-yl]-1,4lambda5-oxaphosphinan-4-one], with 10 to 30 µM; and `CCC(Nc1c(Cl)c(C)nc2cc(F)c(-c3ccc(P(C)(C)=O)nc3)nc12)c1cnn(C)c1` (centres unmarked) [Example 104, 3-chloro-6-[6-(dimethylphosphoryl)pyridin-3-yl]-7-fluoro-2-methyl-N-[1-(1-methylpyrazol-4-yl)propyl]-1,5-naphthyridin-4-amine], with no more than 1 µM.
The figure for `Cc1nc2cc(F)c(-c3ccc(OCP(C)(C)=O)nc3)cc2c(N[C@H](C)c2ccccc2F)c1Cl` [Example 105, 3-chloro-6-{6-[(dimethylphosphoryl)methoxy]pyridin-3-yl}-7-fluoro-N-[(1R)-1-(2-fluorophenyl)ethyl]-2-methylquinolin-4-amine] is no more than 1 µM; for `Cc1nc2cc(F)c(-c3ccc(P(C)(C)=O)nc3)nc2c(N[C@H](C)c2cc(C#N)cc(F)c2F)c1Cl` [Example 106, 3-[(1R)-1-({3-chloro-6-[6-(dimethylphosphoryl)pyridin-3-yl]-7-fluoro-2-methyl-1,5-naphthyridin-4-yl}amino)ethyl]-4,5-difluorobenzonitrile] it is no more than 0.1 µM.
For `Cc1nc2cc(F)c(-c3cnc(P(C)(C)=O)c(F)c3)nc2c(N[C@H](C)c2cccc(F)c2F)c1Cl` [Example 107, 3-chloro-N-[(1R)-1-(2,3-difluorophenyl)ethyl]-6-[6-(dimethylphosphoryl)-5-fluoropyridin-3-yl]-7-fluoro-2-methyl-1,5-naphthyridin-4-amine], the half-maximal inhibitory concentration (IC50) was no more than 1 µM.
Then `CC[C@@H](Nc1c(Cl)c(C)nc2cc(F)c(-c3ccc(OCP(C)(C)=O)nc3)nc12)c1ncccc1F` [Example 108, 3-chloro-6-{6-[(dimethylphosphoryl)methoxy]pyridin-3-yl}-7-fluoro-N-[(1R)-1-(3-fluoropyridin-2-yl)propyl]-2-methyl-1,5-naphthyridin-4-amine], with no more than 1 µM; and `Cc1nc2cc(F)c(-c3ccc(P(C)(C)=O)nc3)nc2c(NC2(c3ccccn3)CC2)c1Cl` [Example 111, 3-chloro-6-[6-(dimethylphosphoryl)pyridin-3-yl]-7-fluoro-2-methyl-N-[1-(pyridin-2-yl)cyclopropyl]-1,5-naphthyridin-4-amine], with no more than 0.1 µM; and `Cc1nc2cc(F)c(-c3ccc(P(C)(C)=O)nc3)cc2c(N[C@H](C)c2cc(F)cc(F)c2)c1Cl` [Example 112, 3-chloro-N-[(1R)-1-(3,5-difluorophenyl)ethyl]-6-[6-(dimethylphosphoryl)pyridin-3-yl]-7-fluoro-2-methylquinolin-4-amine], with no more than 1 µM.
Then `CC[C@@H](Nc1c(Cl)c(C)nc2cc(F)c(-c3cnc(P(C)(C)=O)nc3)nc12)c1cccc(F)c1F` [Example 113, (R)-(5-(7-chloro-8-((1-(2,3-difluorophenyl)propyl)amino)-3-fluoro-6-methyl-1,5-naphthyridin-2-yl)pyrimidin-2-yl)dimethylphosphine oxide], with no more than 1 µM.
Then `CC[C@@H](Nc1c(Cl)c(C)nc2cc(F)c(-c3cnc(P(C)(C)=O)nc3)cc12)c1cccc(F)c1F` [Example 114, (R)-(5-(3-chloro-4-((1-(2,3-difluorophenyl)propyl)amino)-7-fluoro-2-methylquinolin-6-yl)pyrimidin-2-yl)dimethylphosphine oxide], with no more than 0.1 µM.
`CC[C@H](Nc1c(Cl)c(C)nc2cc(F)c(-c3cnc(P(C)(C)=O)nc3)cc12)c1cccc(F)c1F` [Example 115, (S)-(5-(3-chloro-4-((1-(2,3-difluorophenyl)propyl)amino)-7-fluoro-2-methylquinolin-6-yl)pyrimidin-2-yl)dimethylphosphine oxide] returned a half-maximal inhibitory concentration (IC50) of no more than 1 µM.
As for `Cc1nc2cc(F)c(-c3ccc(P(C)(C)=O)c(F)c3)nc2c(N[C@H](C)c2cccc(Cl)c2F)c1Cl` [Example 118, 3-chloro-N-[(1R)-1-(3-chloro-2-fluorophenyl)ethyl]-6-[4-(dimethylphosphoryl)-3-fluorophenyl]-7-fluoro-2-methyl-1,5-naphthyridin-4-amine], the half-inhibitory concentration (IC50) is no more than 1 µM.
`Cc1nc2cc(F)c(-c3ccc(P(C)(C)=O)nc3)nc2c(N[C@H](C)c2cc(C#N)ccc2F)c1C` [Example 119, 3-[(1R)-1-({6-[6-(dimethylphosphoryl)pyridin-3-yl]-7-fluoro-2,3-dimethyl-1,5-naphthyridin-4-yl}amino)ethyl]-4-fluorobenzonitrile]: the concentration for half-maximal inhibition (IC50) is no more than 1 µM.
The compound `Cc1nc2cc(F)c(-c3cnc(P(C)(C)=O)c(F)c3)nc2c(N[C@H](C)c2cc(C#N)ccc2F)c1Cl` [Example 120, 3-[(1R)-1-({3-chloro-6-[6-(dimethylphosphoryl)-5-fluoropyridin-3-yl]-7-fluoro-2-methyl-1,5-naphthyridin-4-yl}amino)ethyl]-4-fluorobenzonitrile] showed an IC50 of no more than 0.1 µM.
The figure for `Cc1nc2cc(F)c(-c3cnc(OCP(C)(C)=O)nc3)nc2c(N[C@H](C)c2cc(C#N)ccc2F)c1Cl` [Example 121, 3-[(1R)-1-[(3-chloro-6-{2-[(dimethylphosphoryl)methoxy]pyrimidin-5-yl}-7-fluoro-2-methyl-1,5-naphthyridin-4-yl)amino]ethyl]-4-fluorobenzonitrile] is no more than 0.1 µM; for `Cc1nc2cc(F)c(-c3ccc(P(C)(C)=O)nc3)nc2c(N[C@@H](C)c2nc(C#N)ccc2F)c1Cl` [Example 122, 6-[(1S)-1-({3-chloro-6-[6-(dimethylphosphoryl)pyridin-3-yl]-7-fluoro-2-methyl-1,5-naphthyridin-4-yl}amino)ethyl]-5-fluoropyridine-2-carbonitrile] it is no more than 0.1 µM.
`Cc1nc2cc(F)c(-c3ccc(P(C)(C)=O)nc3)nc2c(N[C@H](C)c2nc(C#N)ccc2F)c1Cl` [Example 123, 6-[(1R)-1-({3-chloro-6-[6-(dimethylphosphoryl)pyridin-3-yl]-7-fluoro-2-methyl-1,5-naphthyridin-4-yl}amino)ethyl]-5-fluoropyridine-2-carbonitrile] registered a half-inhibitory concentration (IC50) of no more than 1 µM.
Then `Cc1nc2cc(F)c(-c3cnc(OCP(C)(C)=O)nc3)nc2c(N[C@H](C)c2cccc(F)c2F)c1Cl` [Example 124, 3-chloro-N-[(1R)-1-(2,3-difluorophenyl)ethyl]-6-{2-[(dimethylphosphoryl)methoxy]pyrimidin-5-yl}-7-fluoro-2-methyl-1,5-naphthyridin-4-amine], with no more than 1 µM.

The values above are taken from patent US12338262B2 (Forward Therapeutics, Inc., priority 2022, dated 2025).
